Source: patent US20260071252A1, “REVERSIBLE NANOPARTICLE AGGREGATES AND METHODS FOR DETECTING PROTEASES” (The Regents of the University of California, priority 2022, published 2026)
Entries after “also recorded” stand apart in the source; their conditions may differ. Where no end group is shown, it is not given here.

What was measured:
[1] = Peptide-enabled dissociation of RRK-induced AuNP aggregates; conditions: for particle dissociation: RRK-induced AuNP aggregates; for dissociation of aggregated AuNPs in diverse matrixes: 100% human saliva, plasma, urine, and seawater; for concentration that dissociates AuNP aggregates: Gly spacer length
Method: After inducing AuNP aggregates by the RRK peptides, the A1 peptides with different concentrations from 7 to 300 μM were used to dissociate AuNP aggregates. The plasmonic resonance peak of AuNP aggregates blue shifted to 520 nm after particle dissociation. (FIG. 37b). The hydrodynamic diameter of AuNP aggregates (greater than (>) 1 μm) was reduced to 27±0.07 nm, and the surface charge of AuNPs was—13.4±1.03 mV because of surface modification with neutral charged A1 peptides (150 μM) and residual citrates (FIG. 37c). Particle dissociation induced color change from blue to red and a decrease in size as confirmed by time-dependent photographs, multi-laser wavelength nanoparticle tracking analysis (M-NTA), and TEM (FIG. 37d-e and FIG. 45A-C).
To further study the role of each amino acid in the A1 peptide, we synthesized eight peptide sequences (from A2 to A8) for control experiments (FIG. 46A-H). Table 1 includes peptide sequence, net charge, critical dissociation concentrations (CDC), and design rationale. First, we replaced Cys residue with Gly (i.e., A2) to confirm the role of the anchoring group. […] Second, we hypothesized that negatively charged EE residues were required for particle dissociation because they provide electrostatic repulsions for citrate-coated AuNPs.
Briefly, 10 μM of RRK peptide was used to aggregate 100 μL of AuNPs (conc approximately 3.6 nM). The particle aggregation rapidly occurred (less than 10 s), changing color from red to blue. Then the desired dissociation peptides were used to dissociate the AuNP aggregates. It is notable that these exemplary AuNPs are stabilized by citrate. Different surface ligands (for example, BSPP) and different sizes (40 or 60 nm) require different amounts of RRK peptide for particle aggregation.
Briefly, RRK peptides (8-10 μM) was first used to trigger AuNP aggregation in distilled water. The sample was centrifuged at […] for 5 min to remove the supernatant. Then, the pellet was re-dispersed in 100% human saliva, plasma, urine, and seawater. After re-dispersion, the desired amounts of dissociation peptide were used to dissociate AuNPs aggregates in different matrixes. […] The experiment was performed with three replicates, and the microplate reader was used to measure spectral scanning from 300 to 900 nm before and after dissociation. The ratiometric signal (λ520/λ700) was referred as dissociation. The data was blanked to remove background signal.

[2] = molecular target: SARS-CoV-2 main protease (Mpro) (Severe acute respiratory syndrome coronavirus 2, UniProt P0DTD1)
[3] = Peptide-induced (Arg-Arg) assembly of AuNPs-citrate, TEM/MANTA/UV-Vis
Source text: Formation of AuNP assemblies. In this study, we investigated the possibility of forming convenient and reversible AuNPs assemblies using only elementary 15 nm AuNPs-citrate suspended in water and short peptides without the need for a complex surface modification. Peptides were used because they are relatively bulky and thus their steric prevented the particles from entering a permanent aggregated state. Arginine in particular can strongly interact with citrate anions via electrostatic interactions. A dipeptide containing two repetitions of arginine (Arg-Arg or RR) was thus used to interact with multiple particles at the same time and induce assembly.
Multispectral advanced nanoparticles tracking analysis (MANTA) was then used to confirm the size increase: The initial blue scattering corresponding to a hydrodynamic diameter of 40±25 nm (FIG. 1C) transformed immediately into red scattering corresponding to a hydrodynamic diameter of approximately 467±120 nm (FIG. 1D). Importantly, the count of particles decreased by more than 90%—from 2.5×10^5/mL to 2×10^4/mL, thus confirming that the vast majority of the AuNPs-citrate were aggregated. TEM images at different magnifications are seen in the supporting information (FIG. 10 and FIG. 11).
AuNPs Assembly and Dissociation Assembly. Typically, 1 mL of AuNPs-citrate at OD=1.5 was mixed with 50 μL of Arg-Arg (100 μM) to provoke the AuNPs assembly. The color of the suspensions rapidly changed from red to blue. The assembled AuNPs (Arg-Arg-AuNPs) were stable over time when stored at 4° C. and could be used for dissociation even month after their assembly.
(§1) The optical absorption measurements were collected using a hybrid multi-mode microplate reader (Synergy™ H1 model, BioTek Instruments, Inc.) in a 96-well plate. The dissociation of assembly was characterized by measuring the ratio of the absorbance at 520 nm or 530 nm and 700 nm or 820 nm for 20 nm NPs or 40 nm NPs, respectively.
(§2) The multispectral advanced nanoparticle tracking analysis (MANTA) is a technique that builds images from the particles' light scattering via three lasers of different wavelengths (for example, blue, green, and red); the wavelength of scattering depends on nanoparticle size. Thus, small particles (less than, or <, 100 nm) appear blue while larger particles appear greener or redder. MANTA uses these images to count the nanoparticles and calculate their size based on Brownian motion. MANTA was performed with the VIEWSIZER 3000™ (Horiba Scientific, USA). The temperature was set to 25° C. during the measurement. Automated noise analysis determines the optimal wavelength for representing each nanoparticle. Here, 8-bit composite videos were generated, and 10 videos were used per analysis (300 frames for seconds). A quartz cuvette with minimum volume of 1 mL was used for the measurement and the AuNPs concentrations was set up at 0.04 nM.

[4] = Dissociation of Arg-Arg-AuNPs assemblies with HS-PEGs (UV-Vis percentage of dissociation, MANTA size); conditions: for dissociation of Arg-Arg-AuNPs assemblies: anchoring group / non-PEG ligand controls, up to >100 μM
Source text: Dissociation of the AuNPs assemblies. […] HS-PEG6-OCH3 was chosen because its grafting on AuNPs ensure a high colloidal stability of these latter. Indeed, the grafting of thiolated PEGs has been widely reported in the literature via the formation of a strong Au—S bond conferring to the particles a high colloidal stability due to a combination of hydrophilicity and steric hindrance.^30-32 The Au—S bond being stronger than the arginine-citrate, arginine-gold or even citrate-gold interactions, […] was expected to be capable of progressively replacing the arginine/citrate layers at the gold surface, disrupting the electrostatic network, and eventually dispersing the AuNPs (Scheme 1). Briefly, aqueous suspensions Arg-Arg-AuNPs assemblies were exposed to increasing concentrations of HS-PEG6-OCH3, and the dissociation of the assemblies was characterized by TEM, MANTA, FTIR and UV-Vis spectroscopies (FIG. 2).
The presence of a PEG layer around the AuNPs explains the difference in the hydrodynamic diameter versus the initial AuNPs-citrate (48±32 nm vs 40±25 nm). Remarkably, the LSPR band of the dissociated AuNPs was identical to the AuNPs-citrate: The color of the sample returned to its initial bright red color. […] For the remainder of this study, the efficiency of the dissociation will be characterized by the percentage of dissociation (%) as measured by UV-Vis spectroscopy (comparison between the LSPR band after dissociation versus that from AuNPs-citrate). See the experimental section in the supporting information for more details. […] This finding is particularly interesting because the typical grafting density of HS-PEG6-OCH3 on dispersed AuNPs is reported to be between 3.5 and 4 HS-PEG6-OCH3/nm^2.^33 This implies that no excess of HS-PEGs was needed to dissociate the entire assembly-only enough to cover all the gold surface. It is worth noting that the kinetics of the dissociation was almost instantaneous (equilibrium reached within a minute) (FIG. 14). A video of the dissociation of the AuNPs assemblies is available online.
Dissociation. Stock solutions of the different HS-PEGs with concentrations ranging from 10 μM to 1 mM were prepared. Specific volumes of each solution were added to a 96-well plate in order to reach the desired final HS-PEGs concentration and then 100 μL of Arg-Arg-AuNPs were added. For complex matrices experiments, the Arg-Arg-AuNPs were first concentrated 10 times by centrifugation and then dispersed in complex media (sea water, pooled human saliva, plasma, urine, bile or HEK cell lysates) that represented thus 90% of the total volume except for bile, which was only 20%. Quickly after the addition of AuNPs, the dissociation of the assembly was monitored and the ratio of the absorbances at 520 nm and 700 nm was recorded over time. The percentage of dissociation is described as follows:
as §1
as §2, with “MANTA was performed with the VIEWSIZER” left out, “seconds).” for “seconds). A quartz cuvette with minimum volume of 1 mL was used for the measurement and the AuNPs concentrations was set up at 0.04 nM.”

[5] = critical dissociation concentration, X (no dissociation)

Compound: Ace-KKEEPPC-Am (Ac-KKEEPPC-NH2) [Peptide A6]
- particle dissociation [1]: particle dissociation was quenched

Compound: Ace-EEKKGGGGGGC-Am (Ac-EEKKGGGGGGC-NH2) [Peptide A13]
- dissociation capacity lower than the A12 peptides ([1]; same peptide concentration (30 μM)): 25%

Compound: Ace-EEKKAAC-Am [Peptide A10]
- CDC ([1]; spacer comparison PP, AA, GG): 150 µM

Compound: Ace-CGGKKEEAVLQSGF-Am [Peptide A19]
- peptide concentration causing non-desired particle dissociation [2]: over 50 μM

Compound: Ace-EEKKGGCAVLQ-Am (Ac-EEKKGGCAVLQ-NH2) [Peptide A17]
- particle dissociation [1]: failed to dissociate AuNP aggregates; also recorded: decreased the dissociation capacity

Compound: Ace-EEKKGGGGC-Am (Ac-EEKKGGGGC-NH2) [Peptide A12]
- dissociation of aggregated AuNPs in diverse matrixes [1]: successfully dissociated the aggregated AuNPs in diverse matrixes
- concentration that dissociates AuNP aggregates [1]: 16 µM

Compound: Arg-Arg
- decrease of the count of particles ([3]; MANTA, from 2.5×10^5/mL to 2×10^4/mL after Arg-Arg): more than 90%
- Arg-Arg-induced aggregation of AuNPs-citrate in complex media ([3]; biological fluids, high concentrations of Arg-Arg (>200 μM)): could not induce the AuNPs-citrate aggregation in biological fluids
- hydrodynamic diameter (MANTA) after addition of di-arginine peptide ([3]; excess (10^4 equiv.), 10 μM Arg-Arg, 10 minutes, initial AuNPs-citrate 40±25 nm): approximately 467±120 nm

Compound: Ace-KEEKKPPC-Am (Ac-KEEKKPPC-NH2) [Peptide A4]
- particle dissociation [1]: no particle dissociations

Compound: Arg-Gly-Gly-Gly-Arg (RGGGR-NH2) [reference compound]
- affinity for the AuNPs-citrate compared to Arg-Arg (RR) ([3]; FIG. 1F): higher affinity for the particles than RR

Compound: SGFR
- impact of released fragment on the dissociation process [2]: negligible impact on the dissociation process

Compound: Ace-EEKKPPG-Am (Ac-EEKKPPG-NH2) [Peptide A2]
- particle dissociation [1]: failed to dissociate AuNP aggregates

Compound: Ace-CGGKKEEAVLQ-Am [Peptide A15]
- particle dissociation [1]: higher dissociation capacity than the A14 peptide; also recorded: dissociated AuNP aggregates

Compound: Ace-EEKKGGC-Am (Ac-EEKKGGC-NH2) [Peptide A11]
- dissociation of aggregated AuNPs in diverse matrixes [1]: successfully dissociated the aggregated AuNPs in diverse matrixes
- concentration that dissociates AuNP aggregates [1]: 16 µM
- particle dissociation [1]: highest dissociation capacity compared to other spacers
- CDC ([1]; spacer comparison PP, AA, GG): 16 µM

Compound: NH2-EEKKPPC-Am (H-EEKKPPC-NH2) [Peptide A3]
- particle dissociation [1]: no particle dissociations

Compound: Ace-EEPPKKC-Am (Ac-EEPPKKC-NH2) [Peptide A5]
- dissociation capacity lower than A1 peptide [1]: 50%
- CDC [1, 5]: >300 µM

Compound: O=C(O)CCOCCOCCOCCOCCOCCOCCOCCOCCOCCOCCOCCOCCS [HS-PEG12-COOH, HS—(CH2CH2O)12—CH2CH2COOH]
- assemblies dissociated ([4]; from concentrations of 10 μM): 100%

Compound: O=C(O)CCS [MPA, 3-mercaptopropionic acid, reference compound]
- dissociation of Arg-Arg-AuNPs assemblies [4]: none could dissociate the aggregates

Compound: O=C(O)c1ccc(S)cc1 [MBA, 4-mercaptobenzoic acid, reference compound]
- dissociation of Arg-Arg-AuNPs assemblies [4]: none could dissociate the aggregates

Compound: Ace-EEPPC-Am [Peptide A7]
- CDC [1, 5]: >300 µM
- decreased to % of the dissociation capacity ([1]; relative to A1 peptide): 30%
